Test results published in the kinase profiling compilation of Christmann-Franck et al. (2016).

Tests used:
Test in all cases: KINOMEscan competition binding
Details in all cases: compound 10.0 µM
GSK3A (human) = GSK3A (human) (UniProt P49840)
FYN (human) = FYN (human) (UniProt P06241)
PRKD2 (human) = PRKD2 (human) (UniProt Q9BZL6)
EPHA6 (human) = EPHA6 (human) (UniProt Q9UF33)
[1] = molecular target: JAK1 JH2 pseudokinase (human) (UniProt P23458)
CLK4 (human) = CLK4 (human) (UniProt Q9HAZ1)
STK16 (human) = STK16 (human) (UniProt O75716)
MLTK (human) = MLTK (human) (UniProt Q9NYL2)
CDK9 (human) = CDK9 (human) (UniProt P50750)
PAK1 (human) = PAK1 (human) (UniProt Q13153)
RPS6KA2 KD2 (human) = RPS6KA2 KD2 (human) (UniProt Q15349)
MST1R (human) = MST1R (human) (UniProt Q04912)
MARK4 (human) = MARK4 (human) (UniProt Q96L34)
PRKCD (human) = PRKCD (human) (UniProt Q05655)
DAPK3 (human) = DAPK3 (human) (UniProt O43293)
CHUK (human) = CHUK (human) (UniProt O15111)
STK11 (human) = STK11 (human) (UniProt Q15831)
[2] = molecular target: JAK3 JH1 catalytic (human) (UniProt P52333)
LIMK1 (human) = LIMK1 (human) (UniProt P53667)
AAK1 (human) = AAK1 (human) (UniProt Q2M2I8)
FGR (human) = FGR (human) (UniProt P09769)
MERTK (human) = MERTK (human) (UniProt Q12866)
RPS6KA5 KD2 (human) = RPS6KA5 KD2 (human) (UniProt O75582)
CAMK1D (human) = CAMK1D (human) (UniProt Q8IU85)
RIPK2 (human) = RIPK2 (human) (UniProt O43353)
TTK (human) = TTK (human) (UniProt P33981)
CDK2 (human) = CDK2 (human) (UniProt P24941)
MAPK14 (human) = MAPK14 (human) (UniProt Q16539)
CAMK2D (human) = CAMK2D (human) (UniProt Q13557)
CSNK1D (human) = CSNK1D (human) (UniProt P48730)
PTK2B (human) = PTK2B (human) (UniProt Q14289)

PRKCD (human), sequence (Q05655 whole entry, looked up): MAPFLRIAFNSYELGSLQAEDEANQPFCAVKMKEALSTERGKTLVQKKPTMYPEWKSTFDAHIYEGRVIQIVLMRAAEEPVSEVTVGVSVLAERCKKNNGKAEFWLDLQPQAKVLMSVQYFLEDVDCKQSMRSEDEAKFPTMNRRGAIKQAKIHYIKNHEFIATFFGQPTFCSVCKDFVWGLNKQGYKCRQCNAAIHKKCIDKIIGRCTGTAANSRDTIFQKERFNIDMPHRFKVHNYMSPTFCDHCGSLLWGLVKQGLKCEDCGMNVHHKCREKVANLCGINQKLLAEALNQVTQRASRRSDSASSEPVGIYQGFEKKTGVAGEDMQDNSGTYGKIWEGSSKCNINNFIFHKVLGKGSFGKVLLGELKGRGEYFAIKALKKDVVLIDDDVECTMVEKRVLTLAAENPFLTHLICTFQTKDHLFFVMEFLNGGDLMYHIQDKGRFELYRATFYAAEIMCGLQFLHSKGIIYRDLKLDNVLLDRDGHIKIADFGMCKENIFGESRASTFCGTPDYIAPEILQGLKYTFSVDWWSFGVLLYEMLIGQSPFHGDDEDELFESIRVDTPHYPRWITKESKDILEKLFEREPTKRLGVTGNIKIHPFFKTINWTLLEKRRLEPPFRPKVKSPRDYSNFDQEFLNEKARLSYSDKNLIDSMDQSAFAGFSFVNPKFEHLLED
MAPK14 (human), sequence (Q16539 whole entry, looked up): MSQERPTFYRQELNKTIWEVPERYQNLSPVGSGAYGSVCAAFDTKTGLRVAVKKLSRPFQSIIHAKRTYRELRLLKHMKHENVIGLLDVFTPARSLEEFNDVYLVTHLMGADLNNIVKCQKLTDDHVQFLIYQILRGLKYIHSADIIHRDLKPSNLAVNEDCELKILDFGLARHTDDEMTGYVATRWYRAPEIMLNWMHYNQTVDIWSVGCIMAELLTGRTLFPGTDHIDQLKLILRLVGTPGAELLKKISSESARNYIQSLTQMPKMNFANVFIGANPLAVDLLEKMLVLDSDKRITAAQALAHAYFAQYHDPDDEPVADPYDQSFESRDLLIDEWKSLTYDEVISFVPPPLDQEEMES
STK16 (human), sequence (O75716 whole entry, looked up): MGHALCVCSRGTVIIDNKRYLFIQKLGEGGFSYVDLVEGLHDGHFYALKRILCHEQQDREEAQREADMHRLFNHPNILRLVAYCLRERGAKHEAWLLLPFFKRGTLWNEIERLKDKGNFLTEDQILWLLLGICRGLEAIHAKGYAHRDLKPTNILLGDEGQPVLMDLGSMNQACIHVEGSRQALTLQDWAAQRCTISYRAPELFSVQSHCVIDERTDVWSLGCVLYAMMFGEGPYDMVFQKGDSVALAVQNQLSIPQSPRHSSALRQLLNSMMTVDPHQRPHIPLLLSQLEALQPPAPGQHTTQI
CDK9 (human), sequence (P50750 whole entry, looked up): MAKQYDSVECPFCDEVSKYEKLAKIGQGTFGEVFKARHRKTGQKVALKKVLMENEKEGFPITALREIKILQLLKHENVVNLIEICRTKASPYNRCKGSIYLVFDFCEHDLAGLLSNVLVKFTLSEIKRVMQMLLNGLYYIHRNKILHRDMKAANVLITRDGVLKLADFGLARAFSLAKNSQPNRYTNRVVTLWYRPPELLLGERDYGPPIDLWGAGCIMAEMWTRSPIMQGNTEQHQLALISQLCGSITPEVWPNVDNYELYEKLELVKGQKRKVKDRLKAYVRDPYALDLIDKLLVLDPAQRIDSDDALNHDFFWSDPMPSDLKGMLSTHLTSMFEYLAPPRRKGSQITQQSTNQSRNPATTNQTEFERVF
CAMK2D (human), sequence (Q13557 whole entry, looked up): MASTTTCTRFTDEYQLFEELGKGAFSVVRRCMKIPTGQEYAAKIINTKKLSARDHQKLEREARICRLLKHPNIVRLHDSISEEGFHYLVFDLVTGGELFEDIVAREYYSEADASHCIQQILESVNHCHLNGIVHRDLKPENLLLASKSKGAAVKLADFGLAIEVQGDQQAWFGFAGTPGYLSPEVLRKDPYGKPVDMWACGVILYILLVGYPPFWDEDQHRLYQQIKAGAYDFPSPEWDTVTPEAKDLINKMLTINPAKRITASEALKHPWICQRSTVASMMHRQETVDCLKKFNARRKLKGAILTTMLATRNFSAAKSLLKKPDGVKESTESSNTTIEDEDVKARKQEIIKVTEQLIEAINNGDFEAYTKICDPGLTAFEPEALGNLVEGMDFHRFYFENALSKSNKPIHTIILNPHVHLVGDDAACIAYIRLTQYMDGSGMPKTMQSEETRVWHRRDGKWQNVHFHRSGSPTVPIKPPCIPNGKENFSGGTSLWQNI
MLTK (human), sequence (Q9NYL2 whole entry, looked up): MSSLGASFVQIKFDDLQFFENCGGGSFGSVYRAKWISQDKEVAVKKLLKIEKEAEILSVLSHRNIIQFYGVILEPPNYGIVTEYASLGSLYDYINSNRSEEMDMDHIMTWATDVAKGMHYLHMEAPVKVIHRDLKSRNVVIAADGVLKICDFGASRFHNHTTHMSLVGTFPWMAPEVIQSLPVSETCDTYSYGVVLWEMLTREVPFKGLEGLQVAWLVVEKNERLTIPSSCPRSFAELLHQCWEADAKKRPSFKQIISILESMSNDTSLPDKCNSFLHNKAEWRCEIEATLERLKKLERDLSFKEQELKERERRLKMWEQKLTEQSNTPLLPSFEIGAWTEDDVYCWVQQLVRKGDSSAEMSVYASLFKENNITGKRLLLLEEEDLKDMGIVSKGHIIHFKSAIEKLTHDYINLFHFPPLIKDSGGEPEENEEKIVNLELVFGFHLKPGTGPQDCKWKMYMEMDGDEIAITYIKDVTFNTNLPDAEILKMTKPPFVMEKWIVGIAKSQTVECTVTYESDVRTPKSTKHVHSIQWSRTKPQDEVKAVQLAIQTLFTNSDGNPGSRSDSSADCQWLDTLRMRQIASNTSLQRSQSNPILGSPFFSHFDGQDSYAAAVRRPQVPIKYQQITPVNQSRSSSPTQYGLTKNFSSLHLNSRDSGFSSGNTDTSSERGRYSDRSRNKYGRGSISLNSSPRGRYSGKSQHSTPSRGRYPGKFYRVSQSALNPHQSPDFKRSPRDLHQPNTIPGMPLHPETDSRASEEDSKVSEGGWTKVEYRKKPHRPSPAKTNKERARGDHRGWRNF
CSNK1D (human), sequence (P48730 whole entry, looked up): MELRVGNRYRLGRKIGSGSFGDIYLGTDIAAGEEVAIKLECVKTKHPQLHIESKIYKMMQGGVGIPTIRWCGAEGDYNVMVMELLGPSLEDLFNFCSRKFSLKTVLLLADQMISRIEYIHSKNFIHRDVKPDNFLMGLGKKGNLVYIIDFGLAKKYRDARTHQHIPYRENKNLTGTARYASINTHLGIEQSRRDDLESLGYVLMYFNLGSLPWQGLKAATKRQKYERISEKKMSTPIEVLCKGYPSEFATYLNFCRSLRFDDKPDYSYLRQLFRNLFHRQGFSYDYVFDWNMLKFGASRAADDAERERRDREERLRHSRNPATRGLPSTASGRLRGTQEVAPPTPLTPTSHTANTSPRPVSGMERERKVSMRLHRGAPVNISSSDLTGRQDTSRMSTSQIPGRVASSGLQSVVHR
JAK1 JH2 pseudokinase (human), sequence (P23458 whole entry, looked up): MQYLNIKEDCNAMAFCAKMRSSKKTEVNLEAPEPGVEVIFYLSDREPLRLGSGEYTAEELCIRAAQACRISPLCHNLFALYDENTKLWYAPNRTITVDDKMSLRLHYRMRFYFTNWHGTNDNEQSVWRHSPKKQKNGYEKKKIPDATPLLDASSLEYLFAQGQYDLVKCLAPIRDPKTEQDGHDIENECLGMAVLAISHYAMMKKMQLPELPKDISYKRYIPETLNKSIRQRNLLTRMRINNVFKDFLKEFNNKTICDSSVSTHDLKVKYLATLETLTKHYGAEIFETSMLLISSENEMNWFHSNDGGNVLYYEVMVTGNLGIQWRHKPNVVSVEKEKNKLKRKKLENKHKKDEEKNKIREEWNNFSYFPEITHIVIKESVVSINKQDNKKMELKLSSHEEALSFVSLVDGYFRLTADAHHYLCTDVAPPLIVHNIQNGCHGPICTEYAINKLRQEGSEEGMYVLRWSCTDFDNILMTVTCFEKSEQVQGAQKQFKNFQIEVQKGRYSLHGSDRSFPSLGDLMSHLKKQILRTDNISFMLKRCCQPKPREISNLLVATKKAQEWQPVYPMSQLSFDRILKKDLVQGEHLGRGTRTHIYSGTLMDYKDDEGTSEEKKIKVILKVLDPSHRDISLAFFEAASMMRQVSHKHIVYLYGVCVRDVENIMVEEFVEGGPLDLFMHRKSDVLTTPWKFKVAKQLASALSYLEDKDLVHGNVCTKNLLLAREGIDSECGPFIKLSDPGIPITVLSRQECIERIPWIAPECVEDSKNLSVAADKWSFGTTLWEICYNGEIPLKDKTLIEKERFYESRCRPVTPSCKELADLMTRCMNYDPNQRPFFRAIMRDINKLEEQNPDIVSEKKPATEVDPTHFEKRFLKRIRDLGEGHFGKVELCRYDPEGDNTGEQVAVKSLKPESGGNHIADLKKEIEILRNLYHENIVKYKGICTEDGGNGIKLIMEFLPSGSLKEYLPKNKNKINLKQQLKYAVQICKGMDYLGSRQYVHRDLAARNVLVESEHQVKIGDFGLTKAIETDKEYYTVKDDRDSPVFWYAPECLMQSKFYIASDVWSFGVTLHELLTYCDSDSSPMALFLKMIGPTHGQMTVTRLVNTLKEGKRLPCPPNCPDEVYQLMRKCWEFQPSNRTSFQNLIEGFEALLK
STK11 (human), sequence (Q15831 whole entry, looked up): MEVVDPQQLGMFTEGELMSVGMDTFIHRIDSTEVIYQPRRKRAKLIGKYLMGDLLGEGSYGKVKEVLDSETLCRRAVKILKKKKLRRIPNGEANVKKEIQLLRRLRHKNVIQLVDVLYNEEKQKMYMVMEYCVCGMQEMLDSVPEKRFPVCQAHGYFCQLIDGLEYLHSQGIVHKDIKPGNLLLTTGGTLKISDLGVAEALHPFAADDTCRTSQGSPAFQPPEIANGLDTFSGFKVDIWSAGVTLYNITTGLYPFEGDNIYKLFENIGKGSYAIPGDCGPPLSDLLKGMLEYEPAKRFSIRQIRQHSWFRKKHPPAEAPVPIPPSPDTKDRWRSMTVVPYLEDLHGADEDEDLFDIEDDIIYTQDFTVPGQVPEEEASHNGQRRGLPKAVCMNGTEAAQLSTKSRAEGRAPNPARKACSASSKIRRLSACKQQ

Structure (SMILES)	kinase still bound, per cent of control (GSK3A (human))	kinase still bound, per cent of control (FYN (human))	kinase still bound, per cent of control (PRKD2 (human))	kinase still bound, per cent of control (EPHA6 (human))	kinase still bound, per cent of control [1]	kinase still bound, per cent of control (CLK4 (human))	kinase still bound, per cent of control (STK16 (human))	kinase still bound, per cent of control (MLTK (human))	kinase still bound, per cent of control (CDK9 (human))	kinase still bound, per cent of control (PAK1 (human))	kinase still bound, per cent of control (RPS6KA2 KD2 (human))	kinase still bound, per cent of control (MARK4 (human))	kinase still bound, per cent of control (PRKCD (human))	kinase still bound, per cent of control (DAPK3 (human))	kinase still bound, per cent of control (STK11 (human))	kinase still bound, per cent of control [2]	kinase still bound, per cent of control (LIMK1 (human))	kinase still bound, per cent of control (AAK1 (human))	kinase still bound, per cent of control (FGR (human))	kinase still bound, per cent of control (MERTK (human))	further results
Cc1n[nH]c2ccc(-c3cncc(OC[C@@H](N)Cc4c[nH]c5ccccc45)c3)cc12	1%	100%	0%	100%	100%	2.6%	100%	100%	1.9%	6.2%	100%	100%	0.85%	2.3%	30%	32%	100%	1.8%	100%	33%	kinase still bound, per cent of control (MST1R (human)): 100%; kinase still bound, per cent of control (CHUK (human)): 1%; kinase still bound, per cent of control (RPS6KA5 KD2 (human)): 17%; kinase still bound, per cent of control (CAMK1D (human)): 11%; kinase still bound, per cent of control (RIPK2 (human)): 100%; kinase still bound, per cent of control (TTK (human)): 100%; kinase still bound, per cent of control (CDK2 (human)): 100%; kinase still bound, per cent of control (MAPK14 (human)): 100%; kinase still bound, per cent of control (CAMK2D (human)): 2.5%
CNC(=O)c1ccc(Nc2cc(Nc3ccccc3S(=O)(=O)C(C)C)c3cc[nH]c3n2)nc1	18%	8.1%	100%	29%	0.05%	0.35%	2.8%	100%	100%	100%	100%	4%	15%	100%	18%	1.8%	100%	11%	5%	0.25%	kinase still bound, per cent of control (MST1R (human)): 100%; kinase still bound, per cent of control (CSNK1D (human)): 100%; kinase still bound, per cent of control (CHUK (human)): 100%; kinase still bound, per cent of control (RPS6KA5 KD2 (human)): 100%; kinase still bound, per cent of control (CAMK1D (human)): 100%; kinase still bound, per cent of control (RIPK2 (human)): 100%; kinase still bound, per cent of control (TTK (human)): 4.6%; kinase still bound, per cent of control (CDK2 (human)): 100%; kinase still bound, per cent of control (PTK2B (human)): 0.1%; kinase still bound, per cent of control (MAPK14 (human)): 100%; kinase still bound, per cent of control (CAMK2D (human)): 100%
C=CC(=O)Nc1ccc(CN(C(=O)Nc2c(Cl)c(OC)cc(OC)c2Cl)c2cc(Nc3ccc(N4CCN(C)CC4)cc3)ncn2)cc1	100%	5.6%	100%	100%	100%	100%	100%	100%	100%	100%	100%	100%	100%	100%	100%	0.15%	100%	100%	7%	100%	kinase still bound, per cent of control (MST1R (human)): 100%; kinase still bound, per cent of control (CSNK1D (human)): 100%; kinase still bound, per cent of control (CHUK (human)): 100%; kinase still bound, per cent of control (RPS6KA5 KD2 (human)): 100%; kinase still bound, per cent of control (CAMK1D (human)): 100%; kinase still bound, per cent of control (RIPK2 (human)): 100%; kinase still bound, per cent of control (TTK (human)): 100%; kinase still bound, per cent of control (CDK2 (human)): 100%; kinase still bound, per cent of control (PTK2B (human)): 100%; kinase still bound, per cent of control (MAPK14 (human)): 100%; kinase still bound, per cent of control (CAMK2D (human)): 100%
CCN(CC)CCCCNc1ncc2cc(-c3cc(OC)cc(OC)c3)c(NC(=O)NC(C)(C)C)nc2n1	100%	100%	100%	100%	100%	100%	100%	100%	100%	100%	100%	100%	100%	100%	100%	100%	100%	100%	100%	100%	kinase still bound, per cent of control (CSNK1D (human)): 100%; kinase still bound, per cent of control (RPS6KA5 KD2 (human)): 100%; kinase still bound, per cent of control (CAMK1D (human)): 100%; kinase still bound, per cent of control (RIPK2 (human)): 100%; kinase still bound, per cent of control (TTK (human)): 100%; kinase still bound, per cent of control (CDK2 (human)): 100%; kinase still bound, per cent of control (PTK2B (human)): 100%; kinase still bound, per cent of control (MAPK14 (human)): 100%; kinase still bound, per cent of control (CAMK2D (human)): 100%
